Measured values published in US20160102363A1, “METHODS AND COMPOSITIONS FOR PREDICTING THERAPEUTIC EFFICACY OF KINASE INHIBITORS IN PATIENTS WITH MYELODYSPLASTIC SYNDROME OR RELATED DISORDERS” (ONCONOVA THERAPEUTICS, INC., priority 2013, published 2016).

Test system: MDS patients
Assay: Clinical hematological response of MDS patients treated with Rigosertib
Type: in vivo, human
Details: number of patients of 32 MDS patients
Excerpt: As used herein, “response” is defined by standard clinical criteria, importantly including amelioration of transfusion-dependent anemia, which is a major hallmark of myelodysplastic syndromes (MDS).
This study sought to identify DNA methylation markers that can predict the therapeutic response to a different, and an even more widely pertinent, class of anti-cancer drugs, namely broad-specificity tyrosine kinase inhibitors (TKI's) or a broad specificity kinase inhibitors. As used herein, “response” is defined by standard clinical criteria, importantly including amelioration of transfusion-dependent anemia, which is a major hallmark of myelodysplastic syndromes (MDS).
Pre-therapy bone marrow mononuclear cells from 32 patients were analyzed using the Illumina 450K methylation array platform.
In summary, seven (7) of 32 MDS patients had complete response or CR (Transfusion independence (TI)+increase in hemoglobin (Hb)>2 g/dL), ten (10) had partial response or PR (TI without Hb increase) and fifteen (15) had no response or NR. […] Bisulfite sequencing (which allows quantification of multiple consecutive CpGs in an amplicon) of several differentially methylated loci confirmed the Illumina 450K data.

Q: Which results are given for `COc1cc(OC)c(/C=C/S(=O)(=O)Cc2ccc(OC)c(NCC(=O)[O-])c2)c(OC)c1.[Na+]` [Rigosertib]?
A: complete response or CR (Transfusion independence (TI)+increase in hemoglobin (Hb)>2 g/dL): 7; no response or NR: 15; partial response or PR (TI without Hb increase): 10
